The values below come from patent US20250171432A1, “COMPOUNDS AND METHODS OF USE” (Tango Therapeutics, Inc., priority 2022, published 2025).

Holding throughout (assay type): cell-based
In assay [1] the test system is SDMA (PRMT5 activity) in HAP1 MTAP-intact cell line. Kind of assay: SDMA in-cell western assay, HAP1 MTAP-intact. The conditions noted are these: SDMA in-cell western, HAP1 MTAP-intact cells, 24 hours compound incubation.
For assay [2], the system named is SDMA (PRMT5 activity) in HAP1 MTAP-deleted cell line. Briefly: SDMA in-cell western assay, HAP1 MTAP-deleted. The conditions noted are these: for IC50 / IC90: SDMA in-cell western, HAP1 MTAP-deleted cells, 24 hours compound incubation; for Hap1 MTAP intact/deleted ratio: ratio of SDMA IC50 in HAP1 MTAP-intact to HAP1 MTAP-deleted cell line.
Assay [3] concerns HAP1 MTAP-deleted cell line. Briefly: Viability assay (CellTiter-Glo), HAP1 MTAP-deleted. The conditions noted are these: HAP1 MTAP-deleted cells, 7 days. In short, it runs like this:
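HAP1 MTAP-deleted and MTAP-intact cells seeded, then dosed next day (n=3, 0.2% DMSO) and grown 7 days. Viability by CellTiter-Glo luminescence, expressed as % of DMSO control per cell line.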

In the case of `COc1ncc(NC(=O)C(=O)N2C[C@@H](C)CC[C@@H]2c2cccc(OC[C@@H]3CCCN3C)c2)cc1C(N)=O` [Compound 26, 2-methoxy-5-(2-((2R,5S)-5-methyl-2-(3-(((S)-1-methylpyrrolidin-2-yl)methoxy)phenyl)piperidin-1-yl)-2-oxoacetamido)nicotinamide], the IC50 (usually the concentration that inhibits the measured activity by half) in assay [1] (Homo sapiens, HAP1, 24 h) is more than 50 nM; in assay [2] (Homo sapiens) it was 5 to 50 nM; in assay [3] (Homo sapiens, 168 h), 100 to 1000 nM. Besides, in assay [2] (Homo sapiens), the IC90 (usually the point of the concentration-response curve where the effect stands at 90%) was more than 125 nM. The “Hap1 MTAP intact/deleted ratio” value in assay [2] is given as “A (“A” indicates an IC50 ratio greater than or equal to 30 fold)”.
For `COc1ncc(NC(=O)C(=O)N2C[C@@H](C)CC[C@@H]2c2ccc3sc([C@@H](C)CN(C)C)nc3c2)cc1C(N)=O` [Compound 14, 2-methoxy-5-[[2-oxo-2-[(2R,5S)-5-methyl-2-[2-[(^1R)-2-(dimethylamino)-1-methyl-ethyl]-1,3-benzothiazol-5-yl]-1-piperidyl]acetyl]amino]pyridine-3-carboxamide], the IC50 in assay [1] (Homo sapiens, HAP1, 24 h) was 5 to 50 nM; in assay [2] (Homo sapiens), less than 5 nM; in assay [3] (Homo sapiens, 168 h) it was less than 100 nM. In addition, in assay [2] (Homo sapiens), the 90% effect concentration (IC90) is less than 75 nM. In addition, the “Hap1 MTAP intact/deleted ratio” value in assay [2] is “B (“B” indicates an IC50 ratio greater than or equal to 15 fold but lower than 30 fold)”.
On to `COc1ncc(NC(=O)C(=O)N2C[C@@H](C)CC[C@@H]2c2ccc3sc([C@H](C)CN(C)C)nc3c2)cc1C(N)=O` [Compound 11, 2-methoxy-5-[[2-oxo-2-[(2R,5S)-5-methyl-2-[2-[(^1S)-2-(dimethylamino)-1-methyl-ethyl]-1,3-benzothiazol-5-yl]-1-piperidyl]acetyl]amino]pyridine-3-carboxamide], for which the IC50 was more than 50 nM in assay [1] (Homo sapiens, HAP1, 24 h); less than 5 nM in assay [2] (Homo sapiens); less than 100 nM in assay [3] (Homo sapiens, 168 h). The 90% effect concentration (IC90) in assay [2] (Homo sapiens) is less than 75 nM. Moreover, the “Hap1 MTAP intact/deleted ratio” value in assay [2] is “A (“A” indicates an IC50 ratio greater than or equal to 30 fold)”.
On to `COc1ncc(NC(=O)C(=O)N2C[C@@H](C)CC[C@@H]2c2ccc3sc([C@]45CCC(C4)N(C)C5)nc3c2)cc1C(N)=O` [Compound 71, 2-methoxy-5-(2-((2R,5S)-5-methyl-2-(2-((4R)-2-methyl-2-azabicyclo[2.2.1]heptan-4-yl)benzo[d]thiazol-5-yl)piperidin-1-yl)-2-oxoacetamido)nicotinamide], for which the IC50 in assay [1] (Homo sapiens, HAP1, 24 h) is more than 50 nM; in assay [2] (Homo sapiens) it was less than 5 nM; in assay [3] (Homo sapiens, 168 h) it was less than 100 nM. The compound also gave an IC90 in assay [2] (Homo sapiens) of less than 75 nM. Besides, the “Hap1 MTAP intact/deleted ratio” value in assay [2] is “B (“B” indicates an IC50 ratio greater than or equal to 15 fold but lower than 30 fold)”.
In the case of `COc1ncc(NC(=O)C(=O)N2C[C@@H](C)CC[C@@H]2c2ccc3sc([C@@H]4CCN(C)C[C@@H]4C)nc3c2)cc1C(N)=O` (relative stereo) [Compound 12, 2-methoxy-5-[[2-oxo-2-[(2R,5S)-5-methyl-2-[2-[rel-(3R,4R)-1,3-dimethyl-4-piperidyl]-1,3-benzothiazol-5-yl]-1-piperidyl]acetyl]amino]pyridine-3-carboxamide], the IC50 in assay [1] (Homo sapiens, HAP1, 24 h) was more than 50 nM; in assay [2] (Homo sapiens), less than 5 nM; in assay [3] (Homo sapiens, 168 h), less than 100 nM. The IC90 in assay [2] (Homo sapiens) was less than 75 nM. Also, in assay [2], the “Hap1 MTAP intact/deleted ratio” value is recorded as “A (“A” indicates an IC50 ratio greater than or equal to 30 fold)”.
Consider `CCc1cc(NC(=O)C(=O)N2C[C@@H](C)CC[C@@H]2c2ccc3cn([C@@H]4CCN(C)C[C@@H]4C)nc3c2)cnc1N` [Compound 127], for which the IC50 in assay [1] (Homo sapiens, HAP1, 24 h) was 5 to 50 nM; in assay [2] (Homo sapiens), less than 5 nM; in assay [3] (Homo sapiens, 168 h) it was less than 100 nM. The IC90 in assay [2] (Homo sapiens) was less than 75 nM. In addition, the “Hap1 MTAP intact/deleted ratio” value in assay [2] was “C (“C” indicates an IC50 ratio of less than 15 fold)”.
Take `CCc1cc(NC(=O)C(=O)N2C[C@@H](C)CC[C@@H]2c2cccc(OCC3CCCN3C)c2)cnc1N` (relative stereo) [Compound 69, N-(6-amino-5-ethyl-3-pyridyl)-2-oxo-2-[(2R,5S)-5-methyl-2-[3-[[rel-(2R)-1-methylpyrrolidin-2-yl]methoxy]phenyl]-1-piperidyl]acetamide]: the IC50 in assay [1] (Homo sapiens, HAP1, 24 h) was more than 50 nM; in assay [2] (Homo sapiens), less than 5 nM; in assay [3] (Homo sapiens, 168 h), less than 100 nM. Further, the IC90 in assay [2] (Homo sapiens) was less than 75 nM. In addition, in assay [2], the “Hap1 MTAP intact/deleted ratio” value is “A (“A” indicates an IC50 ratio greater than or equal to 30 fold)”.
In the case of `CCc1cc(NC(=O)C(=O)N2C[C@@H](C)CC[C@@H]2c2ccc3sc(CC(C)(C)N(C)C)nc3c2)cnc1N` [Compound 89, N-(6-amino-5-ethylpyridin-3-yl)-2-((2R,5S)-2-(2-(2-(dimethylamino)-2-methylpropyl)benzo[d]thiazol-5-yl)-5-methylpiperidin-1-yl)-2-oxoacetamide], the IC50 in assay [1] (Homo sapiens, HAP1, 24 h) is more than 50 nM; in assay [2] (Homo sapiens) it was less than 5 nM; in assay [3] (Homo sapiens, 168 h), less than 100 nM. This compound came in with an IC90 in assay [2] (Homo sapiens) of less than 75 nM. Moreover, in assay [2], the “Hap1 MTAP intact/deleted ratio” value is reported as “A (“A” indicates an IC50 ratio greater than or equal to 30 fold)”.
Turning to `CCc1cc(NC(=O)C(=O)N2C[C@@H](C)CC[C@@H]2c2ccc3cn(C4CN(C)CC(C)(C)C4)nc3c2)cnc1N` (single isomer, unassigned) [Compound 78], the half-maximal inhibitory concentration (IC50) in assay [1] is more than 50 nM; in assay [2] (Homo sapiens), less than 5 nM; in assay [3] (Homo sapiens, 168 h), less than 100 nM. Moreover, in assay [2] (Homo sapiens), the IC90 is less than 75 nM. Besides, in assay [2], the “Hap1 MTAP intact/deleted ratio” value was “B (“B” indicates an IC50 ratio greater than or equal to 15 fold but lower than 30 fold)”.
Regarding `COc1ncc(NC(=O)C(=O)N2C[C@@H](C)CC[C@@H]2c2ccc3sc([C@H](C)CN4CCCC4)nc3c2)cc1C(N)=O` [Compound 15, 2-methoxy-5-[[2-oxo-2-[(2R,5S)-5-methyl-2-[2-[(1R)-1-methyl-2-pyrrolidin-1-yl-ethyl]-1,3-benzothiazol-5-yl]-1-piperidyl]acetyl]amino]pyridine-3-carboxamide], the IC50 in assay [1] (Homo sapiens, HAP1, 24 h) was more than 50 nM; in assay [2] (Homo sapiens), less than 5 nM; in assay [3] (Homo sapiens, 168 h), less than 100 nM. In assay [2] (Homo sapiens), this compound registered an IC90 of less than 75 nM. Also, the “Hap1 MTAP intact/deleted ratio” value in assay [2] is recorded as “B (“B” indicates an IC50 ratio greater than or equal to 15 fold but lower than 30 fold)”.
Consider `CCc1cc(NC(=O)C(=O)N2C[C@@H](C)CC[C@@H]2c2ccc3sc(C(C)CN4CCCC4)nc3c2)cnc1N` (single isomer, unassigned) [Compound 106], for which the IC50 is 5 to 50 nM in assay [1], less than 5 nM in assay [2] and less than 100 nM in assay [3]. Further, the IC90 in assay [2] was less than 75 nM. Besides, the “Hap1 MTAP intact/deleted ratio” value in assay [2] is reported as “B (“B” indicates an IC50 ratio greater than or equal to 15 fold but lower than 30 fold)”.
`CCc1cc(NC(=O)C(=O)N2C[C@@H](C)CC[C@@H]2c2cccc(OCC3CCCN3C)c2)cnc1N` (single isomer, unassigned) [Compound 121]: the IC50 in assay [1] (Homo sapiens, HAP1, 24 h) was more than 50 nM; in assay [2] (Homo sapiens), 5 to 50 nM; in assay [3] (Homo sapiens, 168 h), less than 100 nM. Besides, in assay [2] (Homo sapiens), the IC90 was less than 75 nM. Besides, the “Hap1 MTAP intact/deleted ratio” value in assay [2] is reported as “B (“B” indicates an IC50 ratio greater than or equal to 15 fold but lower than 30 fold)”.
The matching figures for `COc1ncc(NC(=O)C(=O)N2C[C@@H](C)CC[C@@H]2c2ccc3cn([C@@H]4CCN(C)C4)nc3c2)cc1C(N)=O` [Compound 102, 2-methoxy-5-(2-((2R,5S)-5-methyl-2-(2-((R)-1-methylpyrrolidin-3-yl)-2H-indazol-6-yl)piperidin-1-yl)-2-oxoacetamido)nicotinamide]: more than 50 nM, less than 5 nM, less than 100 nM, less than 75 nM and “A (“A” indicates an IC50 ratio greater than or equal to 30 fold)”.
